# Laboratory results published in the NIST ThermoML archive (doi:10.1016/j.jct.2016.04.014).
# ± gives the expanded uncertainty stated by the source.
# Conditions: Liquid, Vibrating tube method
smiles,measurement,setting,value
CCCCCCCC [octane],mass density,"288.15 K, 100 kPa",706.5 ± 1.7 kg/m3
same,mass density,"288.15 K, 1000 kPa",707.2 ± 1.7 kg/m3
same,mass density,"288.15 K, 5000 kPa",710.3 ± 1.7 kg/m3
same,mass density,"288.15 K, 10000 kPa",714.1 ± 1.7 kg/m3
same,mass density,"288.15 K, 15000 kPa",717.7 ± 1.7 kg/m3
same,mass density,"288.15 K, 20000 kPa",721.2 ± 1.8 kg/m3
same,mass density,"288.15 K, 25000 kPa",724.5 ± 1.8 kg/m3
same,mass density,"288.15 K, 30000 kPa",727.7 ± 1.8 kg/m3
same,mass density,"288.15 K, 35000 kPa",730.8 ± 1.8 kg/m3
same,mass density,"288.15 K, 40000 kPa",733.7 ± 1.8 kg/m3
same,mass density,"288.15 K, 45000 kPa",736.5 ± 1.8 kg/m3
same,mass density,"288.15 K, 50000 kPa",739.2 ± 1.8 kg/m3
same,mass density,"288.15 K, 55000 kPa",741.7 ± 1.8 kg/m3
same,mass density,"288.15 K, 60000 kPa",744.1 ± 1.9 kg/m3
same,mass density,"293.15 K, 100 kPa",702.5 ± 1.7 kg/m3
same,mass density,"293.15 K, 101 kPa",702.58 ± 0.25 kg/m3
same,mass density,"293.15 K, 1000 kPa",703.2 ± 1.7 kg/m3
same,mass density,"293.15 K, 5000 kPa",706.4 ± 1.7 kg/m3
same,mass density,"293.15 K, 10000 kPa",710.3 ± 1.7 kg/m3
same,mass density,"293.15 K, 15000 kPa",714 ± 1.7 kg/m3
same,mass density,"293.15 K, 20000 kPa",717.6 ± 1.8 kg/m3
same,mass density,"293.15 K, 25000 kPa",721 ± 1.8 kg/m3
same,mass density,"293.15 K, 30000 kPa",724.3 ± 1.8 kg/m3
same,mass density,"293.15 K, 35000 kPa",727.5 ± 1.8 kg/m3
same,mass density,"293.15 K, 40000 kPa",730.5 ± 1.8 kg/m3
same,mass density,"293.15 K, 45000 kPa",733.3 ± 1.8 kg/m3
same,mass density,"293.15 K, 50000 kPa",736 ± 1.8 kg/m3
same,mass density,"293.15 K, 55000 kPa",738.6 ± 1.9 kg/m3
same,mass density,"293.15 K, 60000 kPa",741 ± 1.9 kg/m3
same,mass density,"298.15 K, 100 kPa",698.5 ± 1.7 kg/m3
same,mass density,"298.15 K, 1000 kPa",699.2 ± 1.7 kg/m3
same,mass density,"298.15 K, 5000 kPa",702.5 ± 1.7 kg/m3
same,mass density,"298.15 K, 10000 kPa",706.5 ± 1.7 kg/m3
same,mass density,"298.15 K, 15000 kPa",710.3 ± 1.7 kg/m3
same,mass density,"298.15 K, 20000 kPa",714 ± 1.8 kg/m3
same,mass density,"298.15 K, 25000 kPa",717.6 ± 1.8 kg/m3
same,mass density,"298.15 K, 30000 kPa",720.9 ± 1.8 kg/m3
same,mass density,"298.15 K, 35000 kPa",724.1 ± 1.8 kg/m3
same,mass density,"298.15 K, 40000 kPa",727.2 ± 1.8 kg/m3
same,mass density,"298.15 K, 45000 kPa",730.1 ± 1.8 kg/m3
same,mass density,"298.15 K, 50000 kPa",732.9 ± 1.8 kg/m3
same,mass density,"298.15 K, 55000 kPa",735.5 ± 1.9 kg/m3
same,mass density,"298.15 K, 60000 kPa",738 ± 1.9 kg/m3
same,mass density,"303.15 K, 100 kPa",694.4 ± 1.7 kg/m3
same,mass density,"303.15 K, 101 kPa",694.48 ± 0.25 kg/m3
same,mass density,"303.15 K, 1000 kPa",695.2 ± 1.7 kg/m3
same,mass density,"303.15 K, 5000 kPa",698.6 ± 1.7 kg/m3
same,mass density,"303.15 K, 10000 kPa",702.7 ± 1.7 kg/m3
same,mass density,"303.15 K, 15000 kPa",706.7 ± 1.7 kg/m3
same,mass density,"303.15 K, 20000 kPa",710.5 ± 1.8 kg/m3
same,mass density,"303.15 K, 25000 kPa",714.1 ± 1.8 kg/m3
same,mass density,"303.15 K, 30000 kPa",717.5 ± 1.8 kg/m3
same,mass density,"303.15 K, 35000 kPa",720.9 ± 1.8 kg/m3
same,mass density,"303.15 K, 40000 kPa",724 ± 1.8 kg/m3
same,mass density,"303.15 K, 45000 kPa",727 ± 1.8 kg/m3
same,mass density,"303.15 K, 50000 kPa",729.8 ± 1.8 kg/m3
same,mass density,"303.15 K, 55000 kPa",732.5 ± 1.9 kg/m3
same,mass density,"303.15 K, 60000 kPa",735 ± 1.9 kg/m3
same,mass density,"308.15 K, 100 kPa",690.4 ± 1.7 kg/m3
same,mass density,"308.15 K, 1000 kPa",691.2 ± 1.7 kg/m3
same,mass density,"308.15 K, 5000 kPa",694.7 ± 1.7 kg/m3
same,mass density,"308.15 K, 10000 kPa",698.9 ± 1.7 kg/m3
same,mass density,"308.15 K, 15000 kPa",703 ± 1.7 kg/m3
same,mass density,"308.15 K, 20000 kPa",706.9 ± 1.8 kg/m3
same,mass density,"308.15 K, 25000 kPa",710.6 ± 1.8 kg/m3
same,mass density,"308.15 K, 30000 kPa",714.2 ± 1.8 kg/m3
same,mass density,"308.15 K, 35000 kPa",717.5 ± 1.8 kg/m3
same,mass density,"308.15 K, 40000 kPa",720.8 ± 1.8 kg/m3
same,mass density,"308.15 K, 45000 kPa",723.8 ± 1.8 kg/m3
same,mass density,"308.15 K, 50000 kPa",726.7 ± 1.8 kg/m3
same,mass density,"308.15 K, 55000 kPa",729.4 ± 1.9 kg/m3
same,mass density,"308.15 K, 60000 kPa",731.9 ± 1.9 kg/m3
same,mass density,"313.15 K, 100 kPa",686.3 ± 1.7 kg/m3
same,mass density,"313.15 K, 101 kPa",686.32 ± 0.25 kg/m3
same,mass density,"313.15 K, 1000 kPa",687.1 ± 1.7 kg/m3
same,mass density,"313.15 K, 5000 kPa",690.8 ± 1.7 kg/m3
same,mass density,"313.15 K, 10000 kPa",695.1 ± 1.7 kg/m3
same,mass density,"313.15 K, 15000 kPa",699.3 ± 1.7 kg/m3
same,mass density,"313.15 K, 20000 kPa",703.3 ± 1.8 kg/m3
same,mass density,"313.15 K, 25000 kPa",707.2 ± 1.8 kg/m3
same,mass density,"313.15 K, 30000 kPa",710.8 ± 1.8 kg/m3
same,mass density,"313.15 K, 35000 kPa",714.3 ± 1.8 kg/m3
same,mass density,"313.15 K, 40000 kPa",717.6 ± 1.8 kg/m3
same,mass density,"313.15 K, 45000 kPa",720.7 ± 1.8 kg/m3
same,mass density,"313.15 K, 50000 kPa",723.6 ± 1.8 kg/m3
same,mass density,"313.15 K, 55000 kPa",726.3 ± 1.9 kg/m3
same,mass density,"313.15 K, 60000 kPa",728.9 ± 1.9 kg/m3
same,mass density,"318.15 K, 100 kPa",682.2 ± 1.7 kg/m3
same,mass density,"318.15 K, 1000 kPa",683 ± 1.7 kg/m3
same,mass density,"318.15 K, 5000 kPa",686.8 ± 1.7 kg/m3
same,mass density,"318.15 K, 10000 kPa",691.3 ± 1.7 kg/m3
same,mass density,"318.15 K, 15000 kPa",695.6 ± 1.7 kg/m3
same,mass density,"318.15 K, 20000 kPa",699.7 ± 1.8 kg/m3
same,mass density,"318.15 K, 25000 kPa",703.6 ± 1.8 kg/m3
same,mass density,"318.15 K, 30000 kPa",707.4 ± 1.8 kg/m3
same,mass density,"318.15 K, 35000 kPa",711 ± 1.8 kg/m3
same,mass density,"318.15 K, 40000 kPa",714.3 ± 1.8 kg/m3
same,mass density,"318.15 K, 45000 kPa",717.5 ± 1.8 kg/m3
same,mass density,"318.15 K, 50000 kPa",720.5 ± 1.8 kg/m3
same,mass density,"318.15 K, 55000 kPa",723.3 ± 1.9 kg/m3
same,mass density,"318.15 K, 60000 kPa",725.9 ± 1.9 kg/m3
same,mass density,"323.15 K, 100 kPa",678 ± 1.7 kg/m3
same,mass density,"323.15 K, 101 kPa",678.09 ± 0.25 kg/m3
same,mass density,"323.15 K, 1000 kPa",678.9 ± 1.7 kg/m3
same,mass density,"323.15 K, 5000 kPa",682.8 ± 1.7 kg/m3
same,mass density,"323.15 K, 10000 kPa",687.4 ± 1.7 kg/m3
same,mass density,"323.15 K, 15000 kPa",691.9 ± 1.7 kg/m3
same,mass density,"323.15 K, 20000 kPa",696.1 ± 1.8 kg/m3
same,mass density,"323.15 K, 25000 kPa",700.2 ± 1.8 kg/m3
same,mass density,"323.15 K, 30000 kPa",704 ± 1.8 kg/m3
same,mass density,"323.15 K, 35000 kPa",707.7 ± 1.8 kg/m3
same,mass density,"323.15 K, 40000 kPa",711.1 ± 1.8 kg/m3
same,mass density,"323.15 K, 45000 kPa",714.4 ± 1.8 kg/m3
